In the assay the test system is AsolLGR4(long). Nature of the assay: CRE reporter gene assay in HEK-293T cells transfected with AsolLGR4(long). The note with it: HEK-293T cells with AsolLGR4(long), any concentration tested. The assay is classed as cell-based, A. cf. solaris. From the text: The coding sequences for AsolRXFP/LGR3, AsolLGR4(short), and AsolLGR4(long) lacking a native N-terminal signal peptide were optimized for mammalian codon usage, but with the addition of a 5′ nucleotide sequence encoding an N-terminal bovine prolactin precursor signal peptide followed by a FLAG tag. The coding sequences for each construct are presented in Additional file 16: Dataset S9. Following the addition of a Kozak sequence (GCCACC) before the start codon of each coding sequence, the receptor cDNAs were synthesized in pUC57 vectors (GenScript, Hong Kong) with BamHI and XhoI restriction sites and Gateway‐compatible attB5 and attB2 sites at both ends to also allow recloning into pcDNA3.1/Zeo ( +) or Gateway (Invitrogen) vectors. pUC57 vectors were first digested with BamHI and XhoI restriction enzymes together with pcDNA3.1/Zeo ( +) followed by agarose gel purification of the digested DNA. Receptor constructs were ligated into the cut pcDNA3.1/Zeo ( +) vector to produce pcDNA-AsolRXFP/LGR3, pcDNA − AsolLGR4(short), and pcDNA − AsolLGR4(long). The sequences were confirmed by using Sanger sequencing on both strands. The AsolRXFP/LGR3 sequence was cloned into a lentiviral vector under the control of the constitutive human Ef1α promoter using Gateway technology (Invitrogen), according to the manufacturer’s instructions. […]
(Reporter assays use an easily measured gene product as a stand-in for the process of interest.)

“Also recorded” adds a separate entry of the source.

“Acanthaster cf. solaris Relaxin-like gonad-stimulating peptide 2 [AsolRGP2]”: the “cAMP activity / CRE reporter gene activation” value was “no significant increase in cAMP levels; also recorded: Neither AsolRGP1 nor AsolRGP2 induced CRE reporter gene activation”.

With “Acanthaster cf. solaris Relaxin-like gonad-stimulating peptide 1 [AsolRGP1]”, the “cAMP activity / CRE reporter gene activation” value was “no significant increase in cAMP levels; also recorded: Neither AsolRGP1 nor AsolRGP2 induced CRE reporter gene activation”.
